Measurements as given in PubChem BioAssay (NCI).
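Assay format: 96-well plates, 48-hour exposure. TGI marks complete inhibition of growth.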

What was measured:
Assay in all cases: NCI-60 cell line screen, 48 h
[1] = tested on: PC-3 prostate
[2] = tested on: CCRF-CEM leukemia
[3] = tested on: UO-31 renal
[4] = tested on: MALME-3M melanoma
[5] = tested on: IGROV1 ovarian
[6] = tested on: SN12C renal
[7] = tested on: CAKI-1 renal
[8] = tested on: LOX IMVI melanoma
[9] = tested on: T-47D breast
[10] = tested on: 786-0 renal
[11] = tested on: MCF7 breast
[12] = tested on: BT-549 breast
[13] = tested on: A498 renal
[14] = tested on: NCI/ADR-RES ovarian
[15] = tested on: SW-620 colon
[16] = tested on: SK-MEL-2 melanoma
[17] = tested on: M14 melanoma
[18] = tested on: SF-268 CNS
[19] = tested on: RXF 393 renal
[20] = tested on: U251 CNS
[21] = tested on: UACC-62 melanoma
[22] = tested on: SF-539 CNS
[23] = tested on: KM12 colon
[24] = tested on: OVCAR-5 ovarian
[25] = tested on: MDA-MB-435
[26] = tested on: SNB-75 CNS
[27] = tested on: HCC-2998 colon
[28] = tested on: OVCAR-3 ovarian
[29] = tested on: NCI-H226 lung
[30] = tested on: MDA-MB-231 breast
[31] = tested on: HOP-92 NSCLC
[32] = tested on: UACC-257 melanoma
[33] = tested on: NCI-H460 lung
[34] = tested on: SNB-19 CNS
[35] = tested on: HS 578T breast
[36] = tested on: SK-MEL-28 melanoma
[37] = tested on: MOLT-4 leukemia
[38] = tested on: RPMI-8226 leukemia
[39] = tested on: ACHN renal
[40] = tested on: OVCAR-8 ovarian
[41] = tested on: SF-295 CNS
[42] = tested on: NCI-H23 lung
[43] = tested on: OVCAR-4 ovarian
[44] = tested on: EKVX NSCLC
[45] = tested on: HT29 colon
[46] = tested on: MDA-N
[47] = tested on: SK-MEL-5 melanoma
[48] = tested on: DU-145 prostate
[49] = tested on: TK-10 renal
[50] = tested on: HCT-116 colon
[51] = tested on: NCI-H522 lung
[52] = tested on: HCT-15 colon
[53] = tested on: COLO 205 colon
[54] = tested on: K-562 leukemia
[55] = tested on: A549 NSCLC
[56] = tested on: HL-60(TB) leukemia
[57] = tested on: HOP-62 NSCLC
[58] = tested on: SR leukemia
[59] = tested on: SK-OV-3 ovarian

With Cc1ccc(OCCn2cc(Nc3ccccc3)c(=O)n(CCOc3ccc(C)cc3)c2=O)cc1 the TGI [1] was > 100 µM, the TGI [2] was > 100 µM and the TGI [3] was > 100 µM. The TGI [4] was > 100 µM, the TGI [5] was > 100 µM and the TGI [6] was > 100 µM. For the same compound, the TGI [7] was > 100 µM, the TGI [8] was > 100 µM and the TGI [9] was > 100 µM. For the same compound, the TGI [10] was > 100 µM, the TGI [11] was > 100 µM and the TGI [12] was > 100 µM. The TGI [13] was > 100 µM, the TGI [14] was > 100 µM and the TGI [15] was > 100 µM. For the same compound, the TGI [16] was > 100 µM, the TGI [17] was > 100 µM and the TGI [18] was > 100 µM. For the same compound, the TGI [19] was > 100 µM, the TGI [20] was > 100 µM and the TGI [21] was > 100 µM. For the same compound, the TGI [22] was > 100 µM, the TGI [23] was > 100 µM and the TGI [24] was > 100 µM. For the same compound, the TGI [25] was > 100 µM, the TGI [26] was > 100 µM and the TGI [27] was > 100 µM. For the same compound, the TGI [28] was > 100 µM, the TGI [29] was > 100 µM and the TGI [30] was > 100 µM. The TGI [31] was > 100 µM, the TGI [32] was > 100 µM and the TGI [33] was > 100 µM. The TGI [34] was > 100 µM, the TGI [35] was > 100 µM and the TGI [36] was > 100 µM. The TGI [37] was > 100 µM, the TGI [38] was > 100 µM and the TGI [39] was > 100 µM. For the same compound, the TGI [40] was > 100 µM, the TGI [41] was > 100 µM and the TGI [42] was > 100 µM. The TGI [43] was > 100 µM, the TGI [44] was > 100 µM and the TGI [45] was > 100 µM. The TGI [46] was > 100 µM, the TGI [47] was > 100 µM and the TGI [48] was > 100 µM. The TGI [49] was > 100 µM, the TGI [50] was > 100 µM and the TGI [51] was > 100 µM. The TGI [52] was > 100 µM, the TGI [53] was > 100 µM and the TGI [54] was > 100 µM. For the same compound, the TGI [55] was > 100 µM.
With C[C@@H]1S[C@H](c2ccccc2F)N2Cc3ccccc3N=C12 the TGI [1] was 97.1 µM, the TGI [2] was > 100 µM and the TGI [56] was 52.3 µM. The TGI [57] was > 100 µM, the TGI [3] was 54 µM and the TGI [4] was 54.2 µM. The TGI [5] was > 100 µM, the TGI [6] was 42.2 µM and the TGI [7] was > 100 µM. It also gave a TGI [8] of 38.1 µM, a TGI [9] of 91.4 µM and a TGI [10] of 63.1 µM. For the same compound, the TGI [11] was > 100 µM, the TGI [12] was > 100 µM and the TGI [14] was 99.3 µM. For the same compound, the TGI [15] was > 100 µM, the TGI [16] was 34.7 µM and the TGI [17] was 48.7 µM. The TGI [18] was > 100 µM, the TGI [19] was 83.9 µM and the TGI [20] was > 100 µM. The TGI [21] was 54.8 µM, the TGI [22] was > 100 µM and the TGI [23] was > 100 µM. For the same compound, the TGI [24] was > 100 µM, the TGI [25] was 88.5 µM and the TGI [26] was 97.4 µM. For the same compound, the TGI [27] was 40.9 µM, the TGI [28] was > 100 µM and the TGI [29] was > 100 µM. The TGI [58] was 36.9 µM, the TGI [30] was > 100 µM and the TGI [31] was 65 µM. For the same compound, the TGI [32] was 85.7 µM, the TGI [33] was > 100 µM and the TGI [34] was > 100 µM. The TGI [35] was > 100 µM, the TGI [36] was > 100 µM and the TGI [37] was 46.7 µM. For the same compound, the TGI [38] was 44.4 µM, the TGI [39] was > 100 µM and the TGI [40] was > 100 µM. For the same compound, the TGI [41] was > 100 µM, the TGI [42] was > 100 µM and the TGI [43] was 85.4 µM. The TGI [44] was 95.9 µM, the TGI [59] was 85.1 µM and the TGI [45] was 86.6 µM. The TGI [46] was 48.4 µM, the TGI [47] was 32.5 µM and the TGI [48] was > 100 µM. It also gave a TGI [49] of 94.2 µM, a TGI [50] of 42.2 µM and a TGI [51] of 51.6 µM. For the same compound, the TGI [52] was > 100 µM, the TGI [53] was > 100 µM and the TGI [54] was 65.9 µM. For the same compound, the TGI [55] was > 100 µM.
N#CCc1nc(-c2ccccc2)n[nH]1 was tested, and the TGI [1] was > 100 µM, the TGI [2] was > 100 µM and the TGI [56] was > 100 µM. For the same compound, the TGI [57] was > 100 µM, the TGI [3] was > 100 µM and the TGI [4] was > 100 µM. For the same compound, the TGI [5] was > 100 µM, the TGI [6] was > 100 µM and the TGI [7] was > 100 µM. The TGI [8] was > 100 µM, the TGI [9] was > 100 µM and the TGI [10] was > 100 µM. The TGI [11] was > 100 µM, the TGI [12] was > 100 µM and the TGI [14] was > 100 µM. The TGI [15] was > 100 µM, the TGI [16] was > 100 µM and the TGI [17] was > 100 µM. For the same compound, the TGI [18] was > 100 µM, the TGI [19] was > 100 µM and the TGI [21] was > 100 µM. For the same compound, the TGI [22] was > 100 µM, the TGI [23] was > 100 µM and the TGI [24] was > 100 µM. The TGI [25] was > 100 µM, the TGI [26] was > 100 µM and the TGI [27] was > 100 µM. For the same compound, the TGI [28] was > 100 µM, the TGI [58] was > 100 µM and the TGI [30] was > 100 µM. For the same compound, the TGI [32] was > 100 µM, the TGI [33] was > 100 µM and the TGI [34] was > 100 µM. The TGI [35] was > 100 µM, the TGI [37] was > 100 µM and the TGI [39] was > 100 µM. For the same compound, the TGI [40] was > 100 µM, the TGI [41] was > 100 µM and the TGI [42] was > 100 µM. The TGI [43] was > 100 µM, the TGI [44] was > 100 µM and the TGI [59] was > 100 µM. The TGI [45] was > 100 µM, the TGI [46] was > 100 µM and the TGI [47] was > 100 µM. For the same compound, the TGI [48] was > 100 µM, the TGI [49] was > 100 µM and the TGI [50] was > 100 µM. The TGI [51] was > 100 µM, the TGI [52] was > 100 µM and the TGI [53] was > 100 µM. For the same compound, the TGI [54] was > 100 µM and the TGI [55] was > 100 µM.
For CC1(C)C2CC(=O)C1(C)C(O)C2Br (stereo unspecified), the TGI [1] was > 100 µM, the TGI [2] was > 100 µM and the TGI [56] was > 100 µM. The TGI [57] was > 100 µM, the TGI [3] was > 100 µM and the TGI [4] was > 100 µM. The TGI [5] was > 100 µM, the TGI [6] was > 100 µM and the TGI [9] was > 100 µM. For the same compound, the TGI [10] was > 100 µM, the TGI [11] was > 100 µM and the TGI [12] was > 100 µM. The TGI [13] was > 100 µM, the TGI [14] was > 100 µM and the TGI [15] was > 100 µM. For the same compound, the TGI [16] was > 100 µM, the TGI [17] was > 100 µM and the TGI [18] was > 100 µM. For the same compound, the TGI [19] was > 100 µM, the TGI [20] was > 100 µM and the TGI [21] was > 100 µM. The TGI [22] was > 100 µM, the TGI [23] was > 100 µM and the TGI [24] was > 100 µM. For the same compound, the TGI [25] was > 100 µM, the TGI [27] was > 100 µM and the TGI [28] was > 100 µM. For the same compound, the TGI [29] was > 100 µM, the TGI [30] was > 100 µM and the TGI [31] was > 100 µM. For the same compound, the TGI [33] was > 100 µM, the TGI [34] was > 100 µM and the TGI [35] was > 100 µM. The TGI [36] was > 100 µM, the TGI [37] was > 100 µM and the TGI [39] was > 100 µM. The TGI [40] was > 100 µM, the TGI [41] was > 100 µM and the TGI [42] was > 100 µM. For the same compound, the TGI [44] was > 100 µM, the TGI [59] was > 100 µM and the TGI [45] was > 100 µM. The TGI [46] was > 100 µM, the TGI [47] was > 100 µM and the TGI [48] was > 100 µM. For the same compound, the TGI [49] was > 100 µM, the TGI [50] was > 100 µM and the TGI [52] was > 100 µM. The TGI [54] was > 100 µM and the TGI [55] was > 100 µM.
